According to PMC6766655, “AhR–ROR-γt complex is a therapeutic target for MAP4K3/GLK^highIL-17A^high subpopulation of systemic lupus erythematosus” (The FASEB Journal, 2019):

Experiments:
[1] = target: T1, KHS (MAP4K5) (Homo sapiens, UniProt Q9Y4K4); test: In vitro kinase assay, myelin basic protein as substrate (ADP-Glo); format: biochemical; conditions: recombinant kinase domain
T1 construct: Recombinant proteins of kinase domains of various MAP4Ks were used; purchased Promega
T1 sequence (Q9Y4K4 20-277 limits assumed): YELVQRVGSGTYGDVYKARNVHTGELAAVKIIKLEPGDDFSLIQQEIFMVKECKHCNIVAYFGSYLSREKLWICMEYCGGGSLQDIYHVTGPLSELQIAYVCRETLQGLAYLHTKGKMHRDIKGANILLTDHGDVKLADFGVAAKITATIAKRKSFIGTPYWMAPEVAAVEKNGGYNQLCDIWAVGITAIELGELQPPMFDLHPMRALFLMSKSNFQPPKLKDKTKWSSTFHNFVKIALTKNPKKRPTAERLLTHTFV

[2] = tested on: EAE mice; test: MOG-induced EAE in wild-type C57BL/6J mice; format: in vivo; conditions: 0.4 μg/g body weight i.v. every 3 d
[3] = tested on: human peripheral blood T cells; test: ELISA of cytokines in supernatants of anti-CD3/CD28-stimulated human peripheral blood T cells; format: cell-based; conditions: for inhibition of IL-17A: 1 μM
Text: Primary human T cells were freshly isolated and negatively selected from the PBLs of clinical samples using a cocktail of biotin-conjugated anti-CD19, anti-CD14, and anti-CD11b antibodies (BioLegend) on a magnetic cell separation column (Miltenyi Biotec, Bergisch Gladbach, Germany) ([26]). In addition, primary murine T cells were negatively selected from the spleens of mice using magnetically coupled antibodies against CD11b, B220, CD49b, CD235, and TER-119 (Miltenyi Biotec) ([18]).
We further studied whether IL-17A production is abolished by verteporfin in human and murine T cells. We first tested the inhibitory effect of verteporfin in murine T cells stimulated with T-cell receptor (TCR) signaling (anti-CD3 plus anti-CD28 antibodies). […] This reduction is likely due to the inhibition of NF-κB activation ([18]) by the verteporfin treatment. This notion is supported by our published results that TCR-induced TNF-α and IFN-γ levels in T cells are inhibited by IKK-β conditional knockout ([18]). Next, we studied whether verteporfin attenuates IL-17A production using human peripheral blood T cells with stimulation. The levels of T-cell–secreted IL-17A in unstimulated T cells from patients with SLE and RA were enhanced compared with those from healthy controls (Fig. 5B). […] GLK overexpression in T cells selectively induces IL-17A production in Lck-GLK Tg mice ([18]). […] The inhibition of the production of other cytokines by the high-dose but not low-dose verteporfin treatment may be due to a requirement of higher concentration of verteporfin for an efficient inhibition of NF-κB activation.
Figure 5 Verteporfin (C1) blocks IL-17 production of human T cells. A) ELISA of various cytokines in supernatants of murine primary T cells stimulated with anti-CD3 or CD28 and cotreated with C1 (5 or 10 μM) for 3 d. Means ± SD are shown; n = 3/group. B) ELISA of various cytokines in supernatants of human T cells. T cells were stimulated with anti-CD3 or CD28 and cotreated with C1 (1 or 5 μM) for 3 d. HC, healthy control; N.S., not significant. Means ± SD are shown. *P < 0.05, **P < 0.01, ***P < 0.001 (2-tailed Student’s t test).
Supplementary Figure 6. Inhibition of IL-17A overproduction by verteporfin in inflammatory T cells from SLE or RA patients. (A) ELISA of various cytokines in supernatants of T cells from RA patients. T cells were stimulated with anti-CD3/CD28 and co-treated with verteporfin (C1) (1 or 5 μM) for 3 days. Means ± SD are shown. (B) The inhibition (%) of IL-17A by the 1 μM verteporfin (C1) treatment in SLE or RA patients was compared to that of healthy controls (HC). Means ± SEM of are shown. HC, healthy controls; SLE, systemic lupus erythematosus; RA, rheumatoid arthritis.

[4] = tested on: Th17 differentiation; test: In vitro Th17 differentiation of splenic T cells (flow cytometry of IL-17A-producing CD4+ T cells); format: cell-based, murine; conditions: 1 or 5 μM during differentiation, 3 days
Protocol: (§1) Supplementary Figure 5. Verteporfin inhibits both Th17 differentiation and IL-17A production from in vitro differentiated Th17 cells. (A) Flow cytometry of IL-17A-producing CD4^+ T cells. Splenic T cells were co-treated with verteporfin (C1) (1 or 5 μM) during Th17 differentiation in vitro (for 3 days). (B) Flow cytometry of IL-17A-producing CD4^+ T cells. Murine in vitro differentiated Th17 cells were stimulated with PMA plus ionomycin and co-treated with verteporfin (C1) (1 or 5 μM) for 30 min. Data shown are representatives of two independent experiments.

[5] = tested on: in vitro differentiated Th17 cells; test: IL-17A production of in vitro differentiated Th17 cells stimulated with PMA plus ionomycin (flow cytometry); format: cell-based, murine; conditions: 1 or 5 μM for 30 min
Protocol: as §1

Substance: verteporfin
- IC50 [1]: 0.0439 µM
- disease severity (clinical score), EAE [2]: significantly suppressed
- serum levels of IL-6, TNF-α, IFN-γ, and IL-4, EAE [2]: not significantly decreased
- serum IL-17A levels, EAE ([2]; day 16): significantly suppressed
- inhibition of IL-17A ([3]; T cells of healthy controls): ~48%
- inhibition of IL-17A ([3]; T cells of patients with SLE or RA): ~75%
- IL-17A production ([3]; T cells from patients with SLE and RA and healthy controls, 1 or 5 μM for 3 d): significantly reduced
- production of IL-17A, IL-6, IL-10, TNF-α, and IFN-γ ([3]; high-dose 5 μM, T cells of healthy controls and patients with SLE): significantly inhibited
- production of IL-6, IL-10, TNF-α, and IFN-γ ([3]; low-dose 1 μM, T cells from patients with SLE or RA): modestly inhibited
- Th17 differentiation [4]: inhibited
- Th17 differentiation ([4]; listed as Verteporfin): inhibits
- IL-17A production from in vitro differentiated Th17 cells [5]: inhibited
- IL-17A production from in vitro differentiated Th17 cells ([5]; listed as Verteporfin): inhibits
